Source: paper PMC9646841, “A bead-based GPCR phosphorylation immunoassay for high-throughput ligand profiling and GRK inhibitor screening” (Communications Biology, 2022)
Values joined by “and” are separate entries in the source; they are usually repeats but may differ in a detail not shown here. Equal values may be shown once. Read-outs that look alike come from different tables or passages of the source.

How the values were obtained:
[1] = system: WT-HEK293 cells; experiment: [3H]DAMGO saturation binding, WT-HEK293 (native) membranes
[2] = target: T1, MOP (Mus musculus, UniProt P42866); experiment: [3H]DAMGO saturation binding, MOP-HEK293 membranes
T1 construct: host or cells: HEK293 (Control-HEK293 or GRK-knockout clones), stably transfected

[3] = system: MOP (GIRK2 channel activation); experiment: GIRK channel membrane potential assay (G protein signaling); assay type: cell-based, mouse; settings: for values normalised to 1µM DAMGO, mean: mean of replicates; for values normalised to 1µM DAMGO (individual values): single replicate values
Experimental: To analyze Gi signaling, changes in membrane potential produced by activation of G protein-gated inwardly rectifying potassium channel (GIRK) were measured as previously described[50],[51]. HEK293 cells were stably transfected with HA-MOP and GFP-conjugated GIRK2 channel plasmids (OriGene). The cells were then seeded in 96-well plates and allowed to grow at 37 °C in 5% CO2 for 48 h. […] A membrane potential dye (FLIPR Membrane Potential kit BLUE, Molecular Devices R8034) was reconstituted according to the manufacturer’s instructions. To each well, 90 μl of the HBSS/HEPES buffer solution and an equal volume of the membrane potential dye were added to a final volume of 180 μl per well. The cells were then incubated at 37 °C for 45 min. Test compounds were prepared in buffer solution containing HBSS and 20 mM HEPES solution (pH 7.4) at tenfold the final concentration to be measured. […] Baseline readings were taken every 1.8 s for 1 min. […] The change in dye fluorescence was recorded for 240 s with SoftMax Pro 5.4 software. Peak fluorescence values were obtained after subtraction of baseline readings for each sample and then used to calculate concentration–response curves using Origin.

[4] = target: MOP, GRK2 (Mus musculus, UniProt P42866); settings: for GRK2 recruitment, normalised: normalized to 10 µM DAMGO
Experimental: Agonist-dependent binding of GRK2/3 and arrestin1/2 to a MOP was determined using a β-galactosidase complementation assay as previously described[47]. […] Cells were plated in 48-well plates and grown for 48 h. After 60 min of agonist exposure, a cell lysis reagent was added, and luminescence was recorded with a FlexStation 3 microplate reader (Molecular Devices).

[5] = target: T2, CB2 cannabinoid receptor (Homo sapiens, UniProt P34972); experiment: pS335/pS336-CB2 7TM phosphorylation assay; assay type: cell-based; settings: for pS335/pS336 (CB2 Phosphorylation Assay): raw duplicate readings
T2 construct: host or cells: HEK293 (CB2-HEK293)

[6] = target: T2, CB2 cannabinoid receptor; experiment: pT338/pT339-CB2 7TM phosphorylation assay; assay type: cell-based; settings: for pT338/pT339-CB2 phosphorylation (OD405): raw duplicate readings

T1 sequence (P42866 whole entry): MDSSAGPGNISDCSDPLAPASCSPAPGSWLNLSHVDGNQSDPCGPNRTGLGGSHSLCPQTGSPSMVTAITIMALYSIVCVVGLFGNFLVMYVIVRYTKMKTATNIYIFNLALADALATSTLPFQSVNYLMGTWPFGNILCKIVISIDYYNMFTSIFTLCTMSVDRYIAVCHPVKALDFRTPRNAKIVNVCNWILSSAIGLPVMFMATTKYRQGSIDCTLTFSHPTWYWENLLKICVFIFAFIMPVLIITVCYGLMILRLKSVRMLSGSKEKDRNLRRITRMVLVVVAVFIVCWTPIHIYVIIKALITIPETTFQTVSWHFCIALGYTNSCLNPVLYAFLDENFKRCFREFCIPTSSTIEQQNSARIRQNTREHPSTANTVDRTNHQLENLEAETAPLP
T2 sequence (P34972 whole entry): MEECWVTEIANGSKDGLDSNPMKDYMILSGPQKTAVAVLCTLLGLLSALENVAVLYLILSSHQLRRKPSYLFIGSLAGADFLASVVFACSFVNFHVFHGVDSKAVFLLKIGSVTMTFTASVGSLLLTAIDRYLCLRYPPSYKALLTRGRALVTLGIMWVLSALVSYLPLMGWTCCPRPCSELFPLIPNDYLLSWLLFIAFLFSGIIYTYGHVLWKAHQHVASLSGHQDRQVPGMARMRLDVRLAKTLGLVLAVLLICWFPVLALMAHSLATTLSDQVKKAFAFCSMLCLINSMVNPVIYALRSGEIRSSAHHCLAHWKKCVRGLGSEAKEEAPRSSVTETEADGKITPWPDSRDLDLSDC
Chain of MOP, GRK2 (P25098 whole entry): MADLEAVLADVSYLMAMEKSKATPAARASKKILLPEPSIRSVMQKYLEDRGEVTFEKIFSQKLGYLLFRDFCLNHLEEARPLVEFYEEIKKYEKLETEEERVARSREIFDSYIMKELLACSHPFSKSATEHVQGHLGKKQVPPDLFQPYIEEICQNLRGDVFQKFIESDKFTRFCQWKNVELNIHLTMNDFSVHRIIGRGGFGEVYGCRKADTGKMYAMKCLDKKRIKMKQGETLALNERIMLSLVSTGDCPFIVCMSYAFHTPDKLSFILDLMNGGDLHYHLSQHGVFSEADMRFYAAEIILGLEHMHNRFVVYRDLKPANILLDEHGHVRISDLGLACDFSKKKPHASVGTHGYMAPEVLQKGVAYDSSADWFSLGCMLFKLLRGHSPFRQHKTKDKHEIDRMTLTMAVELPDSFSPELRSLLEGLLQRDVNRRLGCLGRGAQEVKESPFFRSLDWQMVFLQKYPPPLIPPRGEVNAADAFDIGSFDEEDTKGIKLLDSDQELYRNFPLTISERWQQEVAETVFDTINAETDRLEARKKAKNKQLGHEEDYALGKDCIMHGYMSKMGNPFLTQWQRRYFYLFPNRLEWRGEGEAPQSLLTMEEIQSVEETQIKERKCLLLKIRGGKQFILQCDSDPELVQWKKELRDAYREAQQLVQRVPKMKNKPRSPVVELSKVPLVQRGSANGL
Chain of MOP, GRK2 (P42866 whole entry): as the sequence (P42866 whole entry) above

C[C@@H](NC(=O)[C@@H](N)Cc1ccc(O)cc1)C(=O)NCC(=O)N(C)[C@@H](Cc1ccccc1)C(=O)NCCO [[3H]DAMGO]
saturation binding, mean, HEK293-native ([1]; concentration 0.05 nM): 2.17 | saturation binding, mean, HEK293-native ([1]; concentration 2.05 nM): 2.19 | saturation binding, mean, HEK293-native ([1]; concentration 2.57 nM): 14.32 | saturation binding, mean, HEK293-native ([1]; concentration 4.21 nM): 26.91 | saturation binding, mean, HEK293-native ([1]; concentration 5.23 nM): 41.11 | Bmax ([2]; 25°C, 60 min): 2279 ± 19 fmol/mg protein | saturation binding, mean, HEK293-MOP-HA ([2]; concentration 0.05 nM): 173.5 | saturation binding, mean, HEK293-MOP-HA ([2]; concentration 2.05 nM): 1520.4 | saturation binding, mean, HEK293-MOP-HA ([2]; concentration 2.57 nM): 1621.54 | saturation binding, mean, HEK293-MOP-HA ([2]; concentration 4.21 nM): 1763.3 | saturation binding, mean, HEK293-MOP-HA ([2]; concentration 5.23 nM): 2020.39

C[C@@H](NC(=O)[C@@H](N)Cc1ccc(O)cc1)C(=O)NCC(=O)N(C)[C@@H](Cc1ccccc1)C(=O)NCCO [DAMGO, [D-Ala^2,N-MePhe^4,Gly-ol]-enkephalin]
pEC50 GIRK [3]: 8.9 | values normalised to 1µM DAMGO, mean ([3]; 1pM ligand): 5.028 | values normalised to 1µM DAMGO (individual values) ([3]; 1pM ligand): 5.593 and 7.859 and 3.46 and 5.717 and 7.582 and 8.1092 and 3.374 and 6.042 and 4.849 and 0.5787 and 7.292 and 5.88 and 8.096 and 0.05434 and -0.3462 and 6.3053 | values normalised to 1µM DAMGO, mean ([3]; 10pM ligand): 7.472 | values normalised to 1µM DAMGO (individual values) ([3]; 10pM ligand): 15.49 and 11.6111 and 4.26 and 2.279 and 5.498 and 3.993 and 8.348 and 9.984 and 18.2069 and 4.03 and 10.8569 and 5.742 and 4.237 and 3.526 and 0.4892 and 11.0085 | values normalised to 1µM DAMGO, mean ([3]; 100pM ligand): 9.137 | values normalised to 1µM DAMGO (individual values) ([3]; 100pM ligand): 16.8969 and 12.3538 and 1.282 and -0.5086 and 23.733 and 7.982 and 12.165 and 15.3952 and 18.3102 and 7.555 and 2.414 and 2.004 and 6.703 and 3.838 and 4.846 and 11.227 | values normalised to 1µM DAMGO, mean ([3]; 1nM ligand): 50.7802 | values normalised to 1µM DAMGO (individual values) ([3]; 1nM ligand): 57.1798 and 57.3562 and 19.6942 and 27.9023 and 58.4493 and 49.8324 and 71.4212 and 70.7134 and 62.495 and 60.2954 and 56.8628 and 49.7728 and 53.0466 and 27.1278 and 35.6907 and 54.6435 | values normalised to 1µM DAMGO, mean ([3]; 5nM ligand): 92.3187 | values normalised to 1µM DAMGO, mean ([3]; 10nM ligand): 95.5035 | values normalised to 1µM DAMGO, mean ([3]; 50nM ligand): 101.174 | values normalised to 1µM DAMGO, mean ([3]; 100nM ligand): 99.3452 | values normalised to 1µM DAMGO (individual values) ([3]; 100nM ligand): 100.4 and 100.34 and 112.066 and 111.922 | values normalised to 1µM DAMGO, mean ([3]; 0.5µM ligand): 99.405 | values normalised to 1µM DAMGO (individual values) ([3]; 0.5µM ligand): 99.2581 and 100.369 and 110.848 and 112.015 and 90.6195 and 92.807 and 98.2073 and 99.2624 and 100.349 and 111.9 and 110.485 and 68.4902 and 89.9215 and 98.2442 and 106.456 and 101.247 | DAMGO 1µM signal in RFU ([3]; 1µM DAMGO, one value per experiment): 38.399 RFU and 40.2317 RFU and 34.405 RFU and 46.8468 RFU and 42.8267 RFU and 41.1246 RFU and 35.6065 RFU and 41.2536 RFU | values normalised to 1µM DAMGO, mean ([3]; 1µM ligand): 100 | values normalised to 1µM DAMGO (individual values) ([3]; 1µM ligand): 102.126 and 101.322 and 95.8603 and 104.14 and 98.9994 and 101.001 and 101.569 and 98.4312 and 97.8738 and 109.455 and 90.5448 and 97.309 and 102.691 and 100.145 and 99.8548 and 98.6775 | GRK2 recruitment, raw value ([4]; agonist 0.01 µM): 1.0365 and 0.9786 and 1.1651 and 0.7672 | GRK2 recruitment, raw value ([4]; agonist 0.1 µM): 1.7391 and 1.2836 and 1.7883 and 1.2791 | GRK2 recruitment, raw value ([4]; agonist 1 µM): 3.3164 and 2.1606 and 3.0001 and 2.3217 | GRK2 recruitment, normalised ([4]; agonist 1 µM): 102.84% and 51.53% and 88.80% and 58.68% | GRK2 recruitment, raw value ([4]; agonist 10 µM): 3.4288 and 3.1599 and 2.7372 and 3.6836 | GRK2 recruitment, normalised ([4]; agonist 10 µM): 107.83% and 95.89% and 77.13% and 119.15% | GRK2 recruitment, raw value ([4]; agonist 100 µM): 3.2449 and 4.0099 and 3.3544 and 3.8787 | GRK2 recruitment, normalised ([4]; agonist 100 µM): 99.67% and 133.63% and 104.53% and 127.81%

CCCCCCC(C)(C)c1ccc([C@@H]2C[C@H](O)CC[C@H]2CCCO)c(O)c1 [CP55940]
OD405 min pS335/pS336-CB2 [5]: 0.38 | pS335/pS336 (CB2 Phosphorylation Assay) ([5]; CP55940 1e-6 µM): 0.4195 and 0.458 and 0.3421 | pS335/pS336 (CB2 Phosphorylation Assay) ([5]; CP55940 1e-5 µM): 0.3429 and 0.4547 and 0.4707 and 0.3409 and 0.3589 and 0.38 | pS335/pS336 (CB2 Phosphorylation Assay) ([5]; CP55940 0.0001 µM): 0.3452 and 0.3952 and 0.4236 and 0.425 and 0.3513 and 0.3869 | pS335/pS336 (CB2 Phosphorylation Assay) ([5]; CP55940 0.001 µM): 0.3318 and 0.3924 and 0.4101 and 0.3997 and 0.3583 | pS335/pS336 (CB2 Phosphorylation Assay) ([5]; CP55940 0.1 µM): 0.8954 | pS335/pS336 (CB2 Phosphorylation Assay) ([5]; CP55940 1 µM): 1.0018 and 0.9312 and 1.0017 and 0.8185 | pS335/pS336 (CB2 Phosphorylation Assay) ([5]; CP55940 10 µM): 0.9538 and 0.8534 | OD405 max pT338/pT339-CB2 [6]: 1.74 | pT338/pT339-CB2 phosphorylation (OD405) ([6]; CP55940 0.01 µM): 0.418 and 0.427 and 0.4081 and 0.4835 and 0.513 | pT338/pT339-CB2 phosphorylation (OD405) ([6]; CP55940 0.1 µM): 0.4372 and 0.4959 and 0.4415 and 0.4741 and 0.5035 and 0.468 | pT338/pT339-CB2 phosphorylation (OD405) ([6]; CP55940 0.3 µM): 0.4559 and 0.4962 and 0.7064 and 0.6812 | pT338/pT339-CB2 phosphorylation (OD405) ([6]; CP55940 1 µM): 0.467 and 0.4332 and 0.3917 and 0.4407 and 0.4084 and 0.4786 | pT338/pT339-CB2 phosphorylation (OD405) ([6]; CP55940 3 µM): 0.4766 and 0.4184 and 0.4965 and 0.6601 | pT338/pT339-CB2 phosphorylation (OD405) ([6]; CP55940 10 µM): 1.4013 and 1.5745 and 1.5305 | pT338/pT339-CB2 phosphorylation (OD405) ([6]; CP55940 30 µM): 1.5241 | pT338/pT339-CB2 phosphorylation (OD405) ([6]; CP55940 100 µM): 1.603 and 1.5834 and 1.3626

CN1CC[C@]23c4c5ccc(O)c4O[C@H]2[C@@H](O)C=C[C@H]3[C@H]1C5 [Morphine, morphine]
values normalised to 1µM DAMGO, mean ([3]; 1pM ligand): 6.485 | values normalised to 1µM DAMGO, mean ([3]; 10pM ligand): 6.027 | values normalised to 1µM DAMGO, mean ([3]; 100pM ligand): 6.211 | values normalised to 1µM DAMGO, mean ([3]; 1nM ligand): 9.125 | values normalised to 1µM DAMGO, mean ([3]; 5nM ligand): 29.6678 | values normalised to 1µM DAMGO (individual values) ([3]; 5nM ligand): 45.7495 and 19.0875 and 13.0961 and 9.052 and 36.1933 and 47.9074 and 51.2561 and 57.2816 and 46.4485 and 43.1943 and 26.9461 and 14.2883 and 14.2724 and 18.5122 and 18.46 and 12.9399 | values normalised to 1µM DAMGO, mean ([3]; 10nM ligand): 57.2564 | values normalised to 1µM DAMGO (individual values) ([3]; 10nM ligand): 58.6156 and 56.0883 and 35.9476 and 44.5152 and 64.4335 and 68.3763 and 70.0077 and 70.5635 and 61.8308 and 50.7811 and 68.4527 and 63.2893 and 55.6505 and 50.3141 and 38.9941 and 58.2419 | values normalised to 1µM DAMGO, mean ([3]; 50nM ligand): 66.3769 | values normalised to 1µM DAMGO (individual values) ([3]; 50nM ligand): 62.166 and 62.2926 and 44.6191 and 54.7318 and 72.3421 and 70.8947 and 81.0497 and 84.3524 and 69.6407 and 82.417 and 82.3952 and 62.9287 and 75.1596 and 38.3592 and 49.3923 and 69.2894 | values normalised to 1µM DAMGO, mean ([3]; 100nM ligand): 74.2194 | values normalised to 1µM DAMGO (individual values) ([3]; 100nM ligand): 89.3793 and 68.637 and 62.5767 and 14.9163 and 86.9174 and 89.8616 and 87.7405 and 94.4167 and 90.0012 and 88.0147 and 94.1235 and 58.569 and 65.3044 and 67.2492 and 54.6739 and 75.1284 | values normalised to 1µM DAMGO, mean ([3]; 0.5µM ligand): 76.9579 | values normalised to 1µM DAMGO (individual values) ([3]; 0.5µM ligand): 87.9206 and 64.7531 and 55.8615 and 55.3841 and 81.7364 and 84.8283 and 97.4763 and 95.5436 and 86.95 and 86.0094 and 85.8902 and 63.7515 and 63.5249 and 73.9389 and 76.3702 and 71.3871 | values normalised to 1µM DAMGO, mean ([3]; 1µM ligand): 72.8983 | values normalised to 1µM DAMGO (individual values) ([3]; 1µM ligand): 75.501 and 68.3564 and 51.865 and 76.6338 and 75.1014 and 79.046 and 83.5821 and 81.3432 and 80.3317 and 85.1376 and 62.4253 and 66.1705 and 66.7508 and 75.1369 and 66.0921
